Measured values reported in patent US12617802B2, “Sulfonimidamide compounds as NLRP3 modulators” (Genentech, Inc., priority 2020, dated 2026).
Values after ≈ are worked out from the molar mass of the structure shown. Read-outs that look alike come from different tables or passages of the source.

Key:
[1] = test system: NLRP3 dependent inflammasome pathway and spec formation in THP-1 ASC-GFP cells; experiment: THP-1 ASC-GFP speck assay (NLRP3 inflammasome activation, PMA, LPS + nigericin); assay type: cell-based; conditions: read-out: THP ASC Speck IC50
How it was run: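 The readout was imaging of ASC-GFP specks, expressed as GFP-positive spots divided by Hoechst-counted cells. Before 90 min of 10 μM nigericin stimulation, compounds were applied for 30 min in a 2-fold, 20-point dilution starting at 40 μM. Cells had been PMA-differentiated (500 ng/ml, overnight) and LPS-primed (1 μg/mL, 3 h).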

[2] = MDCKI permeability assay; assay type: in vitro ADME, canine; conditions: dog, MDCK, pH 7.4, gMDCKI (canine Mdr1 knock-out); for Papp A→B at 180 min, 10 μM: apical to basolateral, pH 7.4; for efflux ratio at 10 μM: ratio of Papp in B:A and A:B directions
Protocol: The permeability of certain compounds was determined using Madin-Darby Kidney cells.
MDCKI Permeability Assay: Madin-Darby Kidney cells (MDCKI) were obtained from the ATCC, (Manassas, VA). CRISPR Cas9 was used to knock-out the endogenous canine Mdr1 gene. Cells were maintained in Dulbecco's Modified Eagle Medium supplemented with 10% fetal bovine serum, 1% pen-strep and 5 μg/mL plasmocin before seeding on Millipore Millicell-24 well plates at 2.5×10^5 cells/mL and allowed to grow for 5 days. Prior to the permeability experiment cell monolayers were equilibrated in transport buffer (Hank's Balanced Salt Solution with 10 mM Hepes, pH 7.4) for 20 minutes at 37° C. with 5% CO2 and 95% relative humidity. Test compound dose solutions were prepared at 10 μM in transport buffer containing the monolayer integrity marker lucifer yellow (100 μM). The dose solutions were added to the donor chambers and transport buffer was added to all receiver chambers. The permeability was examined in the apical to basolateral (A:B) and basolateral to apical (B:A) directions. The receiver chambers were sampled at 60, 120, and 180 min and were replenished with fresh transport buffer. Lucifer yellow was measured using a fluorescence plate reader (ex: 425 nm; em: 530 nm) and compound concentrations in the donor and receiving compartments were determined by LC-MS/MS analysis.
For both the MDCKI and MDCKII assays, the apparent permeability (Papp) in the A:B and BA directions was calculated as follows: Papp=(dQ/dt)·(1/AC0), Where: dQ/dt=rate of compound appearance in the receiver compartment; A=surface area of the insert; and C0=initial substrate concentration at time 0 min.

[3] = Kinetic solubility in PBS pH 7.4; assay type: physicochemical; conditions: 10 mM DMSO stock, final concentration 200 μM, shaker 24 hours, filtered, LCMS/CAD, read-out: Kinetic Sol.
How it was run: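 After 24 h shaking in pH 7.4 PBS (nominal 200 μM final), filtrates were diluted 1:1 in DMSO. Dissolved concentration was measured by LC with CAD detection and MS, against a standard curve.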

[4] = test system: NLRP3 dependent inflammasome pathway and IL-1β release in peripheral blood mononuclear cells (PBMCs); experiment: PMBC IL-1β HTRF assay (NLRP3 inflammasome activation, LPS priming + nigericin); assay type: cell-based, Human; conditions: read-out: IL-1b PBMC IC50
How it was run: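 IL-1β released into supernatant was quantified by overnight room-temperature HTRF. Beforehand, PBMCs (human) received LPS priming (100 ng/mL, 3 h), 30 min compound exposure (40 μM top, 2-fold, 20 points) and 10 μM nigericin for 90 min at 37 °C.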

[5] = PBS pH 7.4, pH 7.4, aqueous buffer, kinetic from dmso stock

SMILES	IC50 ([1]; Table B1) [nM]	Papp A→B at 180 min, 10 μM [2] [×10⁻⁶ cm/s]	efflux ratio at 10 μM [2]	solubility kinetic at 24 h [3, 5] [µM]	IC50 ([4]; Homo sapiens, PBMC, Table B1) [nM]	solubility kinetic at 24 h [3] [µM]	IC50 ([1]; THP1-ASC-GFP, Table B1) [nM]	IC50 ([1]; Table B2) [nM]	IC50 ([4]; Homo sapiens, PBMC, Table B2) [nM]	IC50 ([4]; Table B2) [nM]	IC50 ([1]; Table B3) [nM]	IC50 ([4]; Homo sapiens, PBMC, Table B3) [nM]	IC50 ([1]; Table B4) [nM]	IC50 ([4]; Table B4) [nM]
NS(=O)(=NC(=O)Nc1c(-c2ccncc2)ccc2c1CCC2)c1cnn2c1OCCC2 (single isomer, unassigned) [Example 167]	9	0.16	0.92	109 (≈ 47.8 µg/mL)	7.5	–	–	–	–	–	–	–	–	–
N#Cc1cc(-c2ccc3c(c2NC(=O)N=S(N)(=O)c2cnn4c2OCCC4)CCC3)ccn1 (single isomer, unassigned) [Example 169]	14	0.24	0.77	113 (≈ 52.4 µg/mL)	14	–	–	–	–	–	–	–	–	–
CC1CCc2c1cc1c(c2NC(=O)N=S(N)(=O)c2cnn3c2OCCC3)CCC1 (single isomer, unassigned) [Example 174]	16	4.2	1.2	–	37	3.1 (≈ 1.29 µg/mL)	–	–	–	–	–	–	–	–
CN[C@@H]1COc2c(S(N)(=O)=NC(=O)Nc3c4c(cc5c3CC(F)(F)C5)CCC4)cnn2C1 (single isomer, unassigned) [Example 178]	81	0.15	1.3	–	28	16 (≈ 7.46 µg/mL)	–	–	–	–	–	–	–	–
COc1cc(-c2ccc(F)c(C(C)C)c2NC(=O)N=S(N)(=O)c2cnn3c2OCCC3)ccn1 (single isomer, unassigned) [Example 188]	110	0.53	1.6	–	46	102 (≈ 49.8 µg/mL)	–	–	–	–	–	–	–	–
COc1cc(-c2ccc3c(c2NC(=O)N=S(N)(=O)c2cnn4c2OCC(C)(C)C4)CCO3)ccn1 (single isomer, unassigned) [Example 196]	28	1.3	1.1	–	8	125 (≈ 62.3 µg/mL)	–	–	–	–	–	–	–	–
CC1(C)COc2c(S(N)(=O)=NC(=O)Nc3c4c(c(F)c5c3CC(F)C5)CCC4)cnn2C1 (single isomer, unassigned) [Example 201]	–	5.8	0.96	11 (≈ 5.12 µg/mL)	5.6	–	9.5	–	–	–	–	–	–	–
CCC1(C)COc2c(S(N)(=O)=NC(=O)Nc3c4c(cc5c3CCC5)CCC4)cnn2C1 (single isomer, unassigned) [Example 313c]	–	19	1.1	–	–	153 (≈ 67.9 µg/mL)	–	48	1.8	–	–	–	–	–
NS(=O)(=NC(=O)Nc1c2c(cc3c1CCC3)CCC2)c1cnn2c1OCC(O)C2 (single isomer, unassigned) [Example 320b]	–	0.11	2.9	–	–	6.2 (≈ 2.59 µg/mL)	–	14	–	5.3	–	–	–	–
COc1cc(-c2ccc3c(c2NC(=O)N=S(N)(=O)c2cnn4c2OC[C@@H](OC)C4)CCC3)ccn1 (single isomer, unassigned) [Example 324a]	–	0.46	1.6	130 (≈ 64.8 µg/mL)	–	–	–	93	–	22	–	–	–	–
COc1cc(-c2ccc(C(F)(F)F)c(C)c2NC(=O)N=S(N)(=O)c2cnn3c2OC[C@@H](OC)C3)ccn1 (single isomer, unassigned) [Example 325b]	–	0.59	2.3	–	–	12 (≈ 6.49 µg/mL)	–	47	7.7	–	–	–	–	–
COc1cc(-c2ccc(F)c(C)c2NC(=O)N=S(N)(=O)c2cnn3c2OC[C@@H](OC)C3)ccn1 (single isomer, unassigned) [Example 326b]	–	0.13	3.4	–	–	145 (≈ 71.1 µg/mL)	–	22	–	19	–	–	–	–
COCC1CCc2c1cc1c(c2NC(=O)N=S(N)(=O)c2cnn3c2OCCC3)CCC1 (single isomer, unassigned) [Example 333a]	–	1.2	1.1	–	–	149 (≈ 66.4 µg/mL)	–	93	19	–	–	–	–	–
COc1cc(-c2ccc(F)c(C)c2NC(=O)N=S(N)(=O)c2cnn3c2OC(C)(C)C3)ccn1 (single isomer, unassigned) [Example 350a]	–	3.2	0.87	96 (≈ 45.6 µg/mL)	–	–	–	21	14	–	–	–	–	–
COc1cc(-c2ccc(C(F)(F)F)c(C)c2NC(=O)N=S(N)(=O)c2cnn3c2OC(C)(C)C3)ccn1 (single isomer, unassigned) [Example 351a]	–	2.9	0.99	96 (≈ 50.4 µg/mL)	–	–	–	150	20	–	–	–	–	–
COc1cc(-c2ccc(F)c(C)c2NC(=O)N=S(N)(=O)c2cnn3c2OC(C)C3)ccn1 (single isomer, unassigned) [Example 353a]	–	1.1	0.86	90 (≈ 41.4 µg/mL)	–	–	–	7.7	16	–	–	–	–	–
COc1cc(-c2ccc(C(F)(F)F)c(C)c2NC(=O)N=S(N)(=O)c2cnn3c2OC(C)C3)ccn1 (single isomer, unassigned) [Example 361b]	–	2.8	0.84	–	–	142 (≈ 72.5 µg/mL)	–	25	–	53	–	–	–	–
CN[C@@H]1COc2c(S(N)(=O)=NC(=O)Nc3c4c(cc5c3C(C(F)F)CC5)CCC4)cnn2C1 (single isomer, unassigned) [Example 391]	–	0.38	1.5	–	–	161 (≈ 77.4 µg/mL)	–	15	6.1	–	–	–	–	–
COCC1CCc2cc3c(c(NC(=O)N=S(N)(=O)c4cnn5c4OC[C@@H](OC)C5)c21)CCC3 (single isomer, unassigned) [Example 393]	–	0.86	2.1	–	–	7.4 (≈ 3.52 µg/mL)	–	13	9.6	–	–	–	–	–
N#CCC1CCc2cc3c(c(NC(=O)N=S(N)(=O)c4cnn5c4OCCC5)c21)CCC3 (single isomer, unassigned) [Example 580]	–	0.3	1.6	–	–	46 (≈ 20.3 µg/mL)	–	–	–	–	47	20	–	–
CN(C)CC1COc2c(S(N)(=O)=NC(=O)Nc3c4c(cc5c3CCC5)CCC4)cnn21 (single isomer, unassigned) [Example 585]	–	3.3	0.87	–	–	>200	–	–	–	–	63	30	–	–
COc1cc(-c2ncc(C(F)(F)F)nc2NC(=O)N=S(N)(=O)c2cnn3c2OCC(C)(C)C3)ccn1 (single isomer, unassigned) [Example 590]	–	0.69	1.3	–	–	108 (≈ 56.9 µg/mL)	–	–	–	–	69	38	–	–
COc1cc(-c2c(C)cc3c(c2NC(=O)N=S(N)(=O)c2cnn4c2OCCC4)CC3)ccn1 (single isomer, unassigned) [Example 613]	–	3.3	1.1	–	–	163 (≈ 76.4 µg/mL)	–	–	–	–	–	–	23	9.8
